The target in experiment [1] is Beta Secretase enzyme (BACE) (Homo sapiens, UniProt P56817). The experiment can be described thus: In vitro enzymatic BACE FRET assay. The note with it: read-out: BACE1 FRET assay IC50. In kind it is biochemical. The method, then:
In Vitro Enzymatic BACE FRET (Fluorescence Resonance Energy Transfer) Assay (Enzyme Assay Data in the Example Table I)
The assay buffer used in this screen is 0.05 M acetate, pH 4.2, 10% DMSO final, 100 uM genapol (which is a nonionic detergent, below its Critical Micelle Concentration). The Beta Secretase enzyme (0.2 nM) is pre-incubated for one hour with inhibitors, typically in about 1 uL of DMSO according to a serial dilution, are added thereto. This assay is effectively started by the addition of FRET substrate (50 nM) and the combination is incubated for one hour. The FRET assay is terminated with by addition of Tris buffer, which raises the pH to neutrality, and the fluorescence is determined. The FRET substrate is a peptide with commercially available fluorophore and quencher, on opposite sides of the BACE cleavage site. Proteolytic cleavage of the FRET substrate releases quenching of fluorescence (excitation 488 nm and […]).

Experiment [2] has as its system Aβ 40 in conditioned medium of cells stably expressing Amyloid Precursor Protein (APP). The experiment can be described thus: In vitro BACE cell-based assay (Aβ 40 sandwich ELISA). Particulars: Homo sapiens, HEK293. The procedure:
In Vitro BACE Cell-Based Assay
The cell-based assay measures inhibition or reduction of […] in conditioned medium of test compound treated cells expressing amyloid precursor protein.
Cells stably expressing Amyloid Precursor Protein (APP) were plated at a density of 40K cells/well in 96 well plates (Costar). The cells were cultivated for 24 hours at 37° C. and 5% CO2 in DMEM supplemented with 10% FBS. The test compounds were then added to cells in 10-point dose response concentrations with the starting concentration being either 100 μM or 10 μM. The compounds were diluted from stock solutions in DMSO and the final DMSO concentration of the test compounds on cells was 0.1%. After 24 h of incubation with the test compounds the supernatant conditioned media was collected and the Aβ 40 levels were determined using a sandwich ELISA. The IC50 of the compound was calculated from the percent of control or percent inhibition of Aβ 40 as a function of the concentration of the test compound.
The sandwich ELISA to detect Aβ 40 was performed in 96 well microtiter plates, which were pre-treated with goat anti-rabbit IgG (Pierce). The capture and detecting antibody pair that were used to detect Aβ 40 from cell supernatants were affinity purified pAb40 (Biosource) and biotinylated 6E10 (Signet Labs Inc.), respectively. The optimal concentration for the pAb40 antibody was 3 μg/ml in Superblock/TBS (Pierce) that was supplemented with 0.05% Tween 20 (Sigma). Optimal concentration for the detection antibody 6E10-biotinylated was 0.5 μg/ml in Superblock/TBS (Pierce) that had been supplemented with 2% normal goat serum and 2% normal mouse serum.
Cellular supernatants were incubated with the capture antibody for 3 h at 4° C., followed by 3 wash steps in TBS-tween (0.05%). The detecting antibody incubation was for 2 h at 4° C., again followed by the wash steps as described previously. The final readout of the ELISA is Time-Resolved Fluorescence (counts per minute) using Delfia reagents Streptavidin-Europium and Enhancement solutions (Perkin Elmer) and the Victor 2 multilabel counter (Perkin Elmer).

The next experiment addresses Cathepsin D (Cat D) (Homo sapiens, UniProt P07339). The experiment in a line: In vitro enzymatic Cathepsin D (Cat D) FRET assay. The class given is biochemical. The method, then: In Vitro Enzymatic Cathepsin D (Cat D) FRET (Fluorescence Resonance Energy Transfer) Assay
Recombinant Cat D was expressed in CHO cells. The assay buffer for CathepsinD is 0.05 M citrate pH 3.5, 10% DMSO final, 5 mM CHAPS. The Cat D enzyme (9 nM) is pre-incubated for one hour with inhibitors, typically in about 1 uL of DMSO according to a serial dilution, is added thereto. The assays are effectively started by the addition of different FRET substrates (20 nM for Cat D) and the combination is incubated for one hour. The FRET assay is terminated with by addition of Tris buffer, which raises the pH to neutrality, and the fluorescence is determined. The FRET substrate is a peptide with commercially available fluorophore and quencher, on opposite sides of the BACE cleavage site. The Cat D substrate peptide sequence is based on sequence #1 of Table 1 from Gulnik et al. FEBS Letters v413 p 379-384 1997. Proteolytic cleavage of the FRET substrate releases quenching of fluorescence (Cat D excitation 500 nm and emission 580 nm). […]
See, for instance, examples 8, 12, 15, 16, 18, 21-23, 24, 25, 26, 29, 30, 32, 41-42, 45, 53, 54, 57, 63, 67-69, 72-74, 76, 79-81, 83 & 84 (to point to just a few; referring to data in Table 2). […] See, for instance, examples 8, 12, 15, 18, 21-23, 25, 29, 30, 32, 41-42, 45, 54, 57, 67-68, 72-73, 76, 80-81, 84, 86, 91-92 & 100 (to point out those from compound examples 1-100; and with reference to data in Table 2).

The mark [3] stands for this setting: average IC50, HEK cell assay, Aβ 40 readout.
[4] abbreviates: Cathepsin D FRET assay, read-out: CatD IC50.
The mark [5] stands for this setting: text summary referring to data in Table 2.

Read-outs that look alike come from different tables or passages of the source.

Sequence of Cathepsin D (Cat D) (P07339 65-412, species assumed): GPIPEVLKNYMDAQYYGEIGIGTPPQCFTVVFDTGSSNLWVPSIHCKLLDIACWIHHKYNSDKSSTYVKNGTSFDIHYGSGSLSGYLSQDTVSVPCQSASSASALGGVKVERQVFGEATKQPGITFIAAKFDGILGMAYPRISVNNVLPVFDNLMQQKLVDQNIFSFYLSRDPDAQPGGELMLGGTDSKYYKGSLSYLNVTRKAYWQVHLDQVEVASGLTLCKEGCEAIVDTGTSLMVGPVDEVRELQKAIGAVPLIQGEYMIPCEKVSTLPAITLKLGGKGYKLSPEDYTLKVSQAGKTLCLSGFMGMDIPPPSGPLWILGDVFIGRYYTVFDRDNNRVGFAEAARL
Sequence of Beta Secretase enzyme (BACE) (P56817 46-501): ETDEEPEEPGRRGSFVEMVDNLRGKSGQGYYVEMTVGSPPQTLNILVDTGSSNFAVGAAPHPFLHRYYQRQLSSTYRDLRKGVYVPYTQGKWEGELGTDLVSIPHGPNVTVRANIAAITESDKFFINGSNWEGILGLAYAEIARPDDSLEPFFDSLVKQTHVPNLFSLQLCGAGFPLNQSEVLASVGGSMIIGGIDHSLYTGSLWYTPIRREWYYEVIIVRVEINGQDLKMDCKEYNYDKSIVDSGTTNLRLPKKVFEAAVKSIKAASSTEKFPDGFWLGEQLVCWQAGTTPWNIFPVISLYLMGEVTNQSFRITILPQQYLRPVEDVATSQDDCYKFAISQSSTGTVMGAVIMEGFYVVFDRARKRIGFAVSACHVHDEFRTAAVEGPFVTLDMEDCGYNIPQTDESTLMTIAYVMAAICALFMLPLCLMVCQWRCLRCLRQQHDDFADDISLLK

In the case of `CC#CC(C)Oc1cnc(C(=O)Nc2ccc3c(c2)[C@@]2(C)N=C(N)C(C)(C)S(=O)(=O)[C@@H]2CCO3)cn1` (mixture of isomers) [Example 14, N-((4aR,11bR)-2-amino-3,3,11b-trimethyl-4,4-dioxido-4a,5,6,11b-tetrahydro-3H-[1]benzoxepino[4,5-b][1,4]thiazin-10-yl)-5-(((1R)-1-methyl-2-butyn-1-yl)oxy)-2-pyrazinecarboxamide,N-((4aR,11bR)-2-amino-3,3,11b-trimethyl-4,4-dioxido-4a,5,6,11b-tetrahydro-3H-[1]benzoxepino[4,5-b][1,4]thiazin-10-yl)-5-(((1S)-1-methyl-2-butyn-1-yl)oxy)-2-pyrazinecarboxamide], the IC50 worked out at 0.005 µM in experiment [1] (average IC50); 0.001 µM in experiment [2] (HEK cell, average IC50); 689 µM at Cathepsin D (Cat D) (read-out: CatD IC50).

As for `CC(C#N)Oc1ccc(C(=O)Nc2ccc3c(c2)[C@@]2(C)N=C(N)C(C)(C)S(=O)(=O)[C@@H]2CCO3)nc1` (mixture of isomers) [Example 125, N-((4aR,11bR)-2-amino-3,3,11b-trimethyl-4,4-dioxido-4a,5,6,11b-tetrahydro-3H-[1]benzoxepino[4,5-b][1,4]thiazin-10-yl)-5-((1R)-1-cyanoethoxy)-2-pyridinecarboxamide, N-((4aR,11bR)-2-amino-3,3,11b-trimethyl-4,4-dioxido-4a,5,6,11b-tetrahydro-3H-[1]benzoxepino[4,5-b][1,4]thiazin-10-yl)-5-((15)-1-cyanoethoxy)-2-pyridinecarboxamide], the IC50 stood at 0.056 µM in experiment [1] (average IC50, in vitro enzymatic BACE FRET assay); 0.067 µM in experiment [2] (setting [3]); 1060 µM at Cathepsin D (Cat D) (setting [4]).

Regarding `Cc1cc(Cl)cnc1C(=O)Nc1ccc2c(c1)[C@]1(C)N=C(N)C(C)(C)S(=O)(=O)[C@H]1CCO2` (racemic) [Example 4, N-((4aRS,11bRS)-2-amino-3,3,11b-trimethyl-4,4-dioxido-4a,5,6,11b-tetrahydro-3H-benzo[6,7]oxepino[4,5-b][1,4]thiazin-10-yl)-5-chloro-3-methylpicolinamide], the IC50 is 0.004 µM in experiment [1] (average IC50); 0.01 µM in experiment [2] (HEK cell, average IC50); > 100 µM at Cathepsin D (Cat D) (read-out: CatD IC50).

As to `CC#C[C@@H](C)Oc1ccc(C(=O)Nc2ccc3c(c2)[C@@]2(C)N=C(N)C(C)(C)S(=O)(=O)[C@@H]2CCO3)nc1` (single isomer, unassigned) [Example 68], the IC50 in experiment [1] (average IC50) was 0.002 µM; in experiment [2] (HEK cell, average IC50), 0.001 µM; on Cathepsin D (Cat D) (read-out: CatD IC50) it was 1990 µM; on Cathepsin D (Cat D) (setting [5]), > 1200 µM.

As for `CC#C[C@H](C)Oc1ccc(C(=O)Nc2ccc3c(c2)[C@@]2(C)N=C(N)C(C)(C)S(=O)(=O)[C@@H]2CCO3)nc1` (single isomer, unassigned) [Example 69], the IC50 in experiment [1] (average IC50) is 0.081 µM; in experiment [2] (HEK cell, average IC50), 1.01 µM; at Cathepsin D (Cat D) (read-out: CatD IC50), 811 µM.

`CC#C[C@H](C)Oc1cnc2c(Nc3ccc4c(c3)[C@@]3(C)N=C(N)C(C)(C)S(=O)(=O)[C@@H]3CCO4)ncc(F)c2c1` (single isomer, unassigned) [Example 70]: the IC50 in experiment [1] (average IC50) was 0.003 µM; in experiment [2] (HEK cell, average IC50), 0.026 µM; at Cathepsin D (Cat D) (read-out: CatD IC50), 237 µM.

`CC#C[C@@H](C)Oc1cnc2c(Nc3ccc4c(c3)[C@@]3(C)N=C(N)C(C)(C)S(=O)(=O)[C@@H]3CCO4)ncc(F)c2c1` (single isomer, unassigned) [Example 71]: the IC50 in experiment [1] (average IC50) was found to be 0.12 µM; in experiment [2] (HEK cell, average IC50), 2.36 µM; on Cathepsin D (Cat D) (read-out: CatD IC50) it was 186 µM.

Regarding `Cc1cc(Cl)cnc1C(=O)Nc1ccc2c(c1)[C@@]1(C)N=C(N)C(C)(C)S(=O)(=O)[C@@H]1CCO2` [Example 6a, N-((4aR,11bR)-2-amino-3,3,11b-trimethyl-4,4-dioxido-4a,5,6,11b-tetrahydro-3H-benzo[6,7]oxepino[4,5-b][1,4]thiazin-10-yl)-5-chloro-3-methylpicolinamide], the IC50 in experiment [1] (average IC50) was 0.002 µM; in experiment [2] (HEK cell, average IC50), 0.006 µM; at Cathepsin D (Cat D) (read-out: CatD IC50), > 100 µM.

As for `Cc1cc(Cl)cnc1C(=O)Nc1ccc2c(c1)[C@@]1(C)N=C(N)C(C)(C)S(=O)(=O)[C@H]1CCO2` [Example 6b, N-((4aS,11bR)-2-amino-3,3,11b-trimethyl-4,4-dioxido-4a,5,6,11b-tetrahydro-3H-benzo[6,7]oxepino[4,5-b][1,4]thiazin-10-yl)-5-chloro-3-methylpicolinamide], the IC50 was 0.003 µM in experiment [1] (average IC50); 0.004 µM in experiment [2] (HEK cell, average IC50); > 100 µM on Cathepsin D (Cat D) (read-out: CatD IC50).

`CC1(C)C(N)=N[C@]2(C)c3cc(Nc4ncccc4C#N)ccc3OCC[C@H]2S1(=O)=O` [Example 7, 2-(((4aR,11bR)-2-amino-3,3,11b-trimethyl-4,4-dioxido-4a,5,6,11b-tetrahydro-3H-[1]benzoxepino[4,5-b][1,4]thiazin-10-yl)amino)-3-pyridinecarbonitrile]: the half-inhibitory concentration (IC50) worked out at 0.116 µM in experiment [1] (average IC50); 0.124 µM in experiment [2] (HEK cell, average IC50); 252 µM at Cathepsin D (Cat D) (read-out: CatD IC50).

With `COc1cnc(C(=O)Nc2ccc3c(c2)[C@@]2(C)N=C(N)C(C)(C)S(=O)(=O)[C@H]2CCC3)cn1` [Example 8, N-((4aS,11bR)-2-amino-3,3,11b-trimethyl-4,4-dioxido-3,4a,5,6,7,11b-hexahydrobenzo[3,4]cyclohepta[1,2-b][1,4]thiazin-10-yl)-5-methoxy-2-pyrazinecarboxamide], the IC50 is 0.172 µM in experiment [1] (average IC50); 0.031 µM in experiment [2] (HEK cell, average IC50); 1890 µM at Cathepsin D (Cat D) (read-out: CatD IC50); > 1200 µM at Cathepsin D (Cat D) (setting [5]).

`Cc1cc(Cl)cnc1C(=O)Nc1ccc2c(c1)[C@@]1(C)N=C(N)C(C)(C)S(=O)(=O)[C@H]1CCC2` [Example 9, N-((4a8,11bR)-2-amino-3,3,11b-trimethyl-4,4-dioxido-3,4a,5,6,7,11b-hexahydrobenzo[3,4]cyclohepta[1,2-b][1,4]thiazin-10-yl)-5-chloro-3-methyl-2-pyridinecarboxamide]: the IC50 in experiment [1] (average IC50) worked out at 0.021 µM; in experiment [2] (HEK cell, average IC50), 0.02 µM; at Cathepsin D (Cat D) (read-out: CatD IC50) it was 757 µM.

`CC#CCOc1cnc(C(=O)Nc2ccc3c(c2)[C@@]2(C)N=C(N)C(C)(C)S(=O)(=O)[C@]2(F)CCO3)cn1` [Example 94, N-((4aR,11bR)-2-amino-4a-fluoro-3,3,11b-trimethyl-4,4-dioxido-4a,5,6,11b-tetrahydro-3H-[1]benzoxepino[4,5-b][1,4]thiazin-10-yl)-5-(2-butyn-1-yloxy)-2-pyrazinecarboxamide]: the figures for the IC50 (in experiment [2] (setting [3]); at Cathepsin D (Cat D) (setting [4])) were 0.008 µM and > 400 µM, respectively.

For the origin of these results see patent publication US9309263B2, “Fused multi-cyclic sulfone compounds as inhibitors of beta-secretase and methods of use thereof” (AMGEN INC., priority 2013, dated 2016).
